Assay results: ChEMBL document CHEMBL5375972, “Discovery of Novel 2,3-Dihydro-1H-indene-5-sulfonamide NLRP3 Inflammasome Inhibitors Targeting Colon as a Potential Therapy for Colitis” (J Med Chem, 2023)
Calls of active or inactive are those of the source. The calls are words filed in the database; no cut-off is given here.

How the values were obtained:
J774.A1 = experiment: Inhibition of NF-kappaB pathway in mouse J774.A1 cells assessed as inhibition of LPS-induced IL-6 secretion at 0.1 to 30 uM pretreated for 1hr followed by LPS addition for 6 hrs by ELISA; format: cell-based; settings: dose 0.1-30 µM, time 7.0 hrs
Mus musculus [1] = experiment: Anti-inflammatory activity in DSS-induced ulcerative colitis C57BL/6 mouse model assessed as reduction in inflammatory cell infiltration in colon at 10 mg/kg,ip administrated for 9 days by Hematoxylin-eosin staining based microscopic analysis; format: functional, organism-based; settings: time 9.0 day
[2] = Acute toxicity in Kunming mouse model assessed as anorexia at 1000 mg/kg,IG administration for 7 days; format: organism-based; settings: in vivo, po, 168 h, time 7 day
[3] = Subacute toxicity in C57BL/6 mouse assessed as change in kidney weight at 10 mg/kg,ip administrated for 14 days; format: organism-based; settings: in vivo, 336 h, time 14 day
[4] = Subacute toxicity in C57BL/6 mouse assessed as heart histological changes at 100 mg/kg,ip administrated for 14 days; format: organism-based; settings: in vivo, 336 h, time 14 day
[5] = biological target: T1, Interferon-inducible protein AIM2 (Mus musculus) (UniProt Q91VJ1); experiment: Inhibition of AIM2 inflammasome in mouse J774.A1 cells assessed as inhibition of IL-1 beta secretion at 10 uM pretreated with LPS and compound for 1 hr and later stimulated with poly (dA:dT) for 8 hrs by ELISA; format: cell-based; settings: time 9.0 hrs
T1 sequence (whole entry): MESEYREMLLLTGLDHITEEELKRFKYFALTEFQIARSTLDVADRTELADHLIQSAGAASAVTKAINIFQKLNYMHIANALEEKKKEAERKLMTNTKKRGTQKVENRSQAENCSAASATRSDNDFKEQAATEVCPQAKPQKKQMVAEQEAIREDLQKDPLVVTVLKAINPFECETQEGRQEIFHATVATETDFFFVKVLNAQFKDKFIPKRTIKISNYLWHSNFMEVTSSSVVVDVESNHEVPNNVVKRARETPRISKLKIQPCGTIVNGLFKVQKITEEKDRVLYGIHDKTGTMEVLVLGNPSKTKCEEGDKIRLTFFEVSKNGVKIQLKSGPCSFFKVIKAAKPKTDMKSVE

[6] = Subacute toxicity in C57BL/6 mouse assessed as spleen histological changes at 10 mg/kg,ip administrated for 14 days; format: organism-based; settings: in vivo, 336 h, time 14 day
[7] = Subacute toxicity in C57BL/6 mouse assessed as lung histological changes at 100 mg/kg,ip administrated for 14 days; format: organism-based; settings: in vivo, 336 h, time 14 day
[8] = Acute toxicity in Kunming mouse model assessed as lethal dose at IG administration for 7 days; settings: in vivo, po, time 7 day
Mus musculus [9] = experiment: Anti-inflammatory activity in DSS-induced ulcerative colitis C57BL/6 mouse model assessed as decrease in pro-IL-1beta protein expression in colon at 10 mg/kg,ip administrated for 9 days by Western blotting analysis; format: functional, organism-based; settings: time 9.0 day
[10] = Subacute toxicity in C57BL/6 mouse assessed as lung histological changes at 10 mg/kg,ip administrated for 14 days; format: organism-based; settings: in vivo, 336 h, time 14 day
[11] = Subacute toxicity in C57BL/6 mouse assessed as colon histological changes at 10 mg/kg,ip administrated for 14 days; format: organism-based; settings: in vivo, 336 h, time 14 day
[12] = Subacute toxicity in C57BL/6 mouse assessed as spleen histological changes at 100 mg/kg,ip administrated for 14 days; format: organism-based; settings: in vivo, 336 h, time 14 day
[13] = Cytotoxicity against human HL7702 cells incubated for 48 hrs by resazurin reagent based assay; format: toxicity, cell-based; settings: HL7702 (L02) cells
[14] = Subacute toxicity in C57BL/6 mouse assessed as liver histological changes at 100 mg/kg,ip administrated for 14 days; format: organism-based; settings: in vivo, 336 h, time 14 day
[15] = Stability of compound in rat plasma measured for 48 hrs; format: ADME, cell-free
Mus musculus [16] = experiment: Anti-inflammatory activity in DSS-induced ulcerative colitis C57BL/6 mouse model assessed as reduction in crypt necrosis in colon at 10 mg/kg,ip administrated for 9 days by Hematoxylin-eosin staining based microscopic analysis; format: functional, organism-based; settings: time 9.0 day
[17] = Acute toxicity in Kunming mouse model assessed as clonic convulsion at 2000 mg/kg,IG administration for 7 days; format: organism-based; settings: in vivo, po, 168 h, time 7 day
[18] = Subacute toxicity in C57BL/6 mouse assessed as body weight gain at 10 mg/kg,ip administrated for 14 days; format: organism-based; settings: in vivo, 336 h, time 14 day
[19] = Subacute toxicity in C57BL/6 mouse assessed as kidney histological changes at 100 mg/kg,ip administrated for 14 days; format: organism-based; settings: in vivo, 336 h, time 14 day
[20] = Subacute toxicity in C57BL/6 mouse assessed as change in heart weight at 100 mg/kg,ip administrated for 14 days; format: organism-based; settings: in vivo, 336 h, time 14 day
Mus musculus [21] = experiment: Anti-inflammatory activity in DSS-induced ulcerative colitis C57BL/6 mouse model assessed as decrease in IL-18 expression in colon at 10 mg/kg,ip administrated for 9 days by immunohistochemistry analysis; format: functional, organism-based; settings: time 9.0 day
[22] = Drug distribution in Sprague-Dawley rat lung at 1 mg/kg,iv measured for 0.5 to 2 hrs by HPLC-MS/MS analysis; format: ADME, organism-based; settings: in vivo, time 0.5-2 hrs
Mus musculus [23] = experiment: Anti-inflammatory activity in DSS-induced ulcerative colitis C57BL/6 mouse model assessed as increase in body weight at 10 mg/kg,ip administrated for 9 days; format: functional, organism-based; settings: time 9.0 day
[24] = Subacute toxicity in C57BL/6 mouse assessed as change in liver weight at 100 mg/kg,ip administrated for 14 days; format: organism-based; settings: in vivo, 336 h, time 14 day
[25] = Acute toxicity in Kunming mouse model assessed as behavioral abnormalities at 1000 mg/kg,IG administration for 7 days; format: organism-based; settings: in vivo, po, 168 h, time 7 day
[26] = Acute toxicity in Kunming mouse model assessed as ruffled fur at 1000 mg/kg,IG administration for 7 days; format: organism-based; settings: in vivo, po, 168 h, time 7 day
[27] = Acute toxicity in Kunming mouse model assessed as behavioral abnormalities at 2000 mg/kg,IG administration for 7 days; format: organism-based; settings: in vivo, po, 168 h, time 7 day
[28] = Subacute toxicity in C57BL/6 mouse assessed as liver histological changes at 10 mg/kg,ip administrated for 14 days; format: organism-based; settings: in vivo, 336 h, time 14 day
[29] = Acute toxicity in Kunming mouse model assessed as change in body weight at 2000 mg/kg,IG administration for 7 days; format: organism-based; settings: in vivo, po, 168 h, time 7 day
[30] = Drug distribution in Sprague-Dawley rat colon at 1 mg/kg,iv measured for 0.5 hrs by HPLC-MS/MS analysis; format: ADME, organism-based; settings: read-out: Ct
[31] = Subacute toxicity in C57BL/6 mouse assessed as change in colon weight at 100 mg/kg,ip administrated for 14 days; format: organism-based; settings: in vivo, 336 h, time 14 day
Mus musculus [32] = experiment: Anti-inflammatory activity in DSS-induced ulcerative colitis C57BL/6 mouse model assessed as reduction in mucosal damage in colon at 10 mg/kg,ip administrated for 9 days by Hematoxylin-eosin staining based microscopic analysis; format: functional, organism-based; settings: time 9.0 day
Mus musculus [33] = experiment: Anti-inflammatory activity in C57BL/6 mouse assessed as inhibition of LPS-induced TNFF-alpha secretion at 10 mg/kg,ip administrated for 1 hr followed by LPS stimulation for 2.5 hrs by ELISA analysis; format: functional, organism-based
[34] = Subacute toxicity in C57BL/6 mouse assessed as change in kidney weight at 100 mg/kg,ip administrated for 14 days; format: organism-based; settings: in vivo, 336 h, time 14 day
Mus musculus [35] = experiment: Anti-inflammatory activity in DSS-induced ulcerative colitis C57BL/6 mouse model assessed as decrease in ASC expression in colon at 10 mg/kg,ip administrated for 9 days by immunohistochemistry analysis; format: functional, organism-based; settings: time 9.0 day

CCCNS(=O)(=O)c1ccc2c(c1)CC(N(Cc1cc(Cl)ccc1OCCOC)C(=O)c1cc3ccccc3o1)C2 (racemic)
inhibition (J774.A1): inactive | Activity (Mus musculus [1]): Active | Activity [2]: Non-Toxic | Activity [3]: Non-Toxic | Activity [4]: Non-Toxic | inhibition [5]: inactive | Activity [6]: Non-Toxic | Activity [7]: Non-Toxic | LD50 at 168 h [8]: 2000 mg/kg | Activity (Mus musculus [9]): Active | Activity [10]: Non-Toxic | Activity [11]: Non-Toxic | Activity [12]: Non-Toxic | CC50 at 48 h [13]: > 1000 µM | Activity [14]: Non-Toxic | Stability [15]: Stable | Activity (Mus musculus [16]): Active | Activity [17]: Non-Toxic | Activity [18]: Toxic | Activity [19]: Non-Toxic | Activity [20]: Non-Toxic | Activity (Mus musculus [21]): Active | Drug uptake [22]: Active | Activity (Mus musculus [23]): Active | Activity [24]: Non-Toxic | Activity [25]: Non-Toxic | Activity [26]: Non-Toxic | Activity [27]: Non-Toxic | Activity [28]: Non-Toxic | Activity [29]: Non-Toxic | concentration at 0.5 h [30]: 35300 ng/g | Activity [31]: Non-Toxic | Activity (Mus musculus [32]): Active | Activity (Mus musculus [33]): Active | Activity [34]: Non-Toxic | Activity (Mus musculus [35]): Active
